# In patent publication US9265268B2, “Method of handling bananas” (priority 2009, dated 2016):
# System: bananas
# Assay: Example 1: bananas bagged at harvest, shipped, ethylene-ripened, exposed 12 hr to MCP, stored at approx. 20° C.; sugar spots, color, shelf life
# Format: in vivo, Musa
# Set-up: key to Sugar Spot Ratings: 0 = no spots, 1 = few, 2 = moderate, 3 = severe spots (group average)
# Source text: Each cluster of bananas was rated daily for sugar spots. Clusters were rated using the following scale:
# 0=no spots; 1=few spots; 2=moderate spots; 3=severe spots
# Clusters with rating of 0-1 are commercially desirable to consumers. Clusters with ratings of 2-3 are unacceptable to consumers. In the results below, the average rating for all the clusters in a given treatment group is reported.
# The color of banana peels is rated according to a seven stage rating scale: stage 1 (dark green); stage 2 (all light green); stage 3 (half green and half yellow); stage 4 (more yellow than green); stage 5 (green tips and necks); stage 6 (all yellow; maybe light green necks, no green tips); stage 7 (yellow flecked with brown). Consumers generally prefer to eat bananas in stage 5 or stage 6.
# Bananas were harvested in Columbia and placed in bags. Three types of bags were used: • (1) non-MAP polymeric film bag, sized to hold 18 kg of bananas (“poly liner”). Each bag has two or more holes, each with diameter of approximately 20 mm or larger. • (2) non-MAP polymeric film bag with 44 large holes (hole diameter 10 mm), sized to hold 1.4 kg of bananas (“T-bag”); and • (3) MAP bag (as described above), sized to hold about 1.4 kg of bananas.
# The appropriate weight of bananas was placed in each type of bag after harvest and prior to shipment. Bags were placed in standard cardboard carrying devices. Bananas then were shipped to Philadelphia, Pa., where they were exposed to ethylene using a standard 4 day ripening schedule. Standard commercial methods of shipment and exposure to ethylene were used.
# The Test Protocol that was used was as follows. 312 MAP bags were packed. Each bag held approximately 1.4 kg (3 lb) of bananas. Thirteen such bags were packed in each box. Total weight of bananas in MAP bags was approximately 432 kg. Approximately 216 kg of bananas were placed into poly liners, which were placed into boxes identical to those used for the MAP bags. Approximately 216 kg of bananas were placed into T bags, which were placed into boxes identical to those used for the MAP bags. The gross fruit weight of the each box was approximately 19.5 kg (43 lb).
# Banana heads (industry nomenclature is rasimo) were harvested at 14 weeks of age (typical for US markets). Heads were cut into large, medium and small hands. The hands were washed in chlorinated water tanks. The washed hands were further broken into clusters. Clusters were packed into bags that each held approximately 1.4 kg (3 lb) or bags that each held approximately 18 kg (40 lb). Bags were placed into standard cardboard boxes, and each box held approximately 18-20 kg. Each box had 8 round holes of diameter 40 mm, plus two larger oval holes that also served as hand-holds for carrying.
# The MAP-packaged bananas were packaged as follows: Clusters of approximately 1.4 kg were carefully placed into microperforated bags, and the bags were sealed by twisting the open side of the bag, folding down the twisted end, and placing a rubber band around the twisted and folded end of the bag.
# All bananas were quickly cooled to 13.3° C. and held at that temperature for shipping. During shipping, air ventilation was approximately 15%.
# Bags were not opened during shipping or ripening. Temperature was monitored in some of the bags by placing a temperature probe in one banana in that bag prior to sealing.
# Bananas were ripened in forced-air ripening rooms as follows. On day 1, bananas were kept at 18° C. (64° F.) and exposed to exogenous ethylene (150 ppm for 24 hours). No further exogenous ethylene was used. After day 1, bananas were kept at 18° C. for two days and then at 10° C. for one day. The temperatures given are pulp temperatures and not room temperatures. Humidity was 85% to 95%.
# Bananas were then shipped to Spring House, Pa. Bananas arrived at color stage 2.5-3. The bananas were randomly divided into treatment sets as follows: […]
structure (smiles),measurement,setting,value
"CC1=CC1 [1-MCP, 1-methylcyclopropene]",additional shelf life,1-MCP alone (no MAP),1 to 2 days
same,Sugar Spot Ratings,"MAP, 300 ppb MCP, Day 0",0
same,Sugar Spot Ratings,"MAP, 300 ppb MCP, Day 1",0
same,Sugar Spot Ratings,"MAP, 300 ppb MCP, Day 2",0.00
same,Sugar Spot Ratings,"MAP, 300 ppb MCP, Day 3",0.19
same,Sugar Spot Ratings,"MAP, 300 ppb MCP, Day 4",0.53
same,Sugar Spot Ratings,"MAP, 300 ppb MCP, Day 5",0.92
same,Sugar Spot Ratings,"MAP, 300 ppb MCP, Day 6",1.61
same,Sugar Spot Ratings,"MAP, 1000 ppb MCP, Day 0",0
same,Sugar Spot Ratings,"MAP, 1000 ppb MCP, Day 1",0
same,Sugar Spot Ratings,"MAP, 1000 ppb MCP, Day 2",0.11
same,Sugar Spot Ratings,"MAP, 1000 ppb MCP, Day 3",0.22
same,Sugar Spot Ratings,"MAP, 1000 ppb MCP, Day 4",0.56
same,Sugar Spot Ratings,"MAP, 1000 ppb MCP, Day 5",1.56
same,Sugar Spot Ratings,"MAP, 1000 ppb MCP, Day 6",1.89
same,Sugar Spot Ratings,"T bags, 300 ppb MCP, Day 0",0
same,Sugar Spot Ratings,"T bags, 300 ppb MCP, Day 1",0
same,Sugar Spot Ratings,"T bags, 300 ppb MCP, Day 2",0
same,Sugar Spot Ratings,"T bags, 300 ppb MCP, Day 3",0.94
same,Sugar Spot Ratings,"T bags, 300 ppb MCP, Day 4",2.44
same,Sugar Spot Ratings,"T bags, 300 ppb MCP, Day 5",2.78
same,Sugar Spot Ratings,"T bags, 1000 ppb MCP, Day 0",0
same,Sugar Spot Ratings,"T bags, 1000 ppb MCP, Day 1",0
same,Sugar Spot Ratings,"T bags, 1000 ppb MCP, Day 2",0
same,Sugar Spot Ratings,"T bags, 1000 ppb MCP, Day 3",0.44
same,Sugar Spot Ratings,"T bags, 1000 ppb MCP, Day 4",2.06
same,Sugar Spot Ratings,"T bags, 1000 ppb MCP, Day 5",2.61
same,visual quality maintained beyond the standard handling method,combined treatment 1-MCP and MAP,10 days
same,Sugar Spot Ratings,"poly liner, 300 ppb MCP, Day 0",0
same,Sugar Spot Ratings,"poly liner, 300 ppb MCP, Day 1",0
same,Sugar Spot Ratings,"poly liner, 300 ppb MCP, Day 2",0.06
same,Sugar Spot Ratings,"poly liner, 300 ppb MCP, Day 3",0.33
same,Sugar Spot Ratings,"poly liner, 300 ppb MCP, Day 4",2.17
same,Sugar Spot Ratings,"poly liner, 300 ppb MCP, Day 5",2.89
same,Sugar Spot Ratings,"poly liner, 1000 ppb MCP, Day 0",0
same,Sugar Spot Ratings,"poly liner, 1000 ppb MCP, Day 1",0
same,Sugar Spot Ratings,"poly liner, 1000 ppb MCP, Day 2",0.00
same,Sugar Spot Ratings,"poly liner, 1000 ppb MCP, Day 3",0.33
same,Sugar Spot Ratings,"poly liner, 1000 ppb MCP, Day 4",2.67
same,Sugar Spot Ratings,"poly liner, 1000 ppb MCP, Day 5",2.89
